Where “and” joins values, the source holds several entries; their conditions need not be identical. Identical values can stand only once.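 Each compound was tested at five concentrations against cells in 96-well plates for 48 hours. GI50 is the concentration that inhibits growth by half. At the TGI there is no net growth.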
Assays:
Assay in all cases: DTP human tumour cell line panel, 48 h
[1] = system: SF-295 CNS
[2] = system: RXF 393 renal
[3] = system: SK-MEL-5 melanoma
[4] = system: OVCAR-4 ovarian
[5] = system: 786-0 renal
[6] = system: HOP-92 NSCLC
[7] = system: NCI-H460 lung
[8] = system: COLO 205 colon
[9] = system: MCF7 breast
[10] = system: SK-MEL-2 melanoma

| Structure (SMILES) | GI50 [1] | TGI [1] | GI50 [2] | TGI [2] | GI50 [3] | TGI [3] | GI50 [4] | TGI [4] | GI50 [5] | TGI [5] | GI50 [6] | TGI [6] | GI50 [7] | TGI [7] | GI50 [8] | TGI [8] | GI50 [9] | TGI [9] | TGI [10] | GI50 [10] |
| --- | --- | --- | --- | --- | --- | --- | --- | --- | --- | --- | --- | --- | --- | --- | --- | --- | --- | --- | --- | --- |
| CC(C)COc1nc2c(c(=O)n(C)c(=O)n2C)n1C | > 100 µM | > 100 µM | > 100 µM | > 100 µM | > 100 µM | > 100 µM | > 100 µM | > 100 µM | > 100 µM | > 100 µM | > 100 µM | > 100 µM | > 100 µM | > 100 µM | > 100 µM | > 100 µM | > 100 µM | > 100 µM | – | – |
| O=C1C2C3CC(C4C5C=CC(C5)C34)C2C2C3CC(C12)C1C2C=CC(C2)C31 (configuration not stated) | – | > 100 µM | – | > 100 µM | – | > 100 µM | – | > 100 µM | – | > 100 µM | – | > 100 µM | – | > 100 µM | – | > 100 µM | – | – | > 100 µM | – |
| Cc1cn(Cc2ccc(C34CC5CC(CC(C5)C3)C4)c(O)c2)c(=O)[nH]c1=O | 4.56 µM | 18.5 µM | 1.82 µM | 7.2 µM | 4.37 µM | 15.8 µM | 12.9 µM | 32.1 µM | 12.6 µM | 27 µM | 14.4 µM | 29.5 µM | 12.6 µM | 42.3 µM | 16.4 µM | 32.2 µM | 7.96 µM | 72.9 µM | 32.2 µM | 14.1 µM |
| CSc1nc2c(c(=O)n1C)CN(C1CCCCC1)C(=O)C(c1ccccc1)N2 (configuration not stated) | 35.3 µM | > 100 µM | 49.5 µM | > 100 µM | 10.4 µM | 25.7 µM | 35.2 µM | > 100 µM | 68.3 µM | > 100 µM | 14.3 µM | 91.4 µM | 37.2 µM | > 100 µM | 30.9 µM | > 100 µM | 19.3 µM | 66 µM | > 100 µM | 26.2 µM |
| O=C1C=CC(=O)c2c(O)c3c(c(O)c21)C[C@H](O)[C@H](O)[C@@H]3O | – | 20.3 µM | – | 3.43 µM | – | 3.18 µM | – | 3.45 µM | – | 4.06 µM | – | 2.87 µM | – | 16.8 µM | – | 1.12 µM | – | 3.49 µM | 3.43 µM | – |
| Clc1cccc(C2N3CCCCC3[C@@H]3c4[nH]c5ccccc5c4CCN23)c1 (some centres not stated) | – | > 100 µM | – | 47.5 µM | – | 34.1 µM | – | > 100 µM | – | > 100 µM | – | > 100 µM | – | 46.1 µM | – | – | – | – | 40.1 µM | – |
| CCOP(=O)(OCC)C(C(=O)OC)C(=O)C(=O)Nc1cccc(O)c1 (configuration not stated) | – | > 100 µM | – | > 100 µM | – | > 100 µM | – | > 100 µM | – | > 100 µM | – | > 100 µM | – | > 100 µM | – | > 100 µM | – | > 100 µM | > 100 µM | – |
| Cc1cc(C)c(-c2c(N)cc(Br)cc2Br)c(N)c1 | 3.16 µM | 14.8 µM | 3.16 µM | 8.78 µM | 3.82 µM | 13.9 µM | 8.43 µM | 22.3 µM | 7.75 µM | 21.6 µM | 2.77 µM | 9.4 µM | 4.5 µM | 16.7 µM | 4.93 µM | 15.6 µM | 4.03 µM | 13.8 µM | 14.1 µM | 3.95 µM |
| CO[C@H]1CC(O[C@@H]2/C(C)=C/C[C@@H]3C[C@@H](C[C@]4(CC[C@H](C)[C@@H](C5CCCCC5)O4)O3)OC(=O)[C@@H]3C=C(C)/C(=N/O)[C@H]4OC/C(=C\C=C\[C@@H]2C)[C@]43O)O[C@@H](C)C1O (some centres not stated) | 0.888 µM | 1.87 µM | 0.728 µM | 1.4 µM | 1 µM | 2.29 µM | 1.02 µM | 2.65 µM | 1.14 µM | 2.62 µM | 0.648 µM | 1.57 µM | 0.793 µM | 1.51 µM | 0.93 µM | 1.8 µM | 0.972 µM | 2.46 µM | 2.68 µM | 1.18 µM |
| O=C(O)C1[O][Sb][O]C(C(=O)O)C1O (configuration not stated) | > 100 µM | > 100 µM | > 100 µM | > 100 µM | > 100 µM | > 100 µM | > 100 µM | > 100 µM | > 100 µM | > 100 µM | > 100 µM | > 100 µM | > 100 µM | > 100 µM | – | – | – | – | > 100 µM | > 100 µM |
| COc1ccc(OC)c(/C=N/N=C(\N)NO)c1 | – | > 100 µM | – | > 100 µM | – | – | – | > 100 µM | – | > 100 µM | – | 83.6 µM | – | > 100 µM | – | 66.2 µM | – | – | > 100 µM | – |
| CCNC(=O)OCc1c(COC(=O)NCC)c(-c2ccc(Cl)c(Cl)c2)n2c1CCC2 | – | 36.7 µM | – | – | – | 29.8 µM | – | 36.1 µM | – | 33.5 µM | – | 24.4 µM | – | 25.7 µM | – | 62.1 µM | – | – | 28.1 µM | – |
| COc1c(-c2ccccc2)nc2ccc(Oc3ccccc3)nn12 | – | > 100 µM | – | > 73.6 µM | – | > 63.2 µM | – | > 71.3 µM | – | > 100 µM | – | > 100 µM | – | > 100 µM | – | > 65 µM | – | – | > 94.4 µM | – |
| COc1ccc(S(=O)(=O)N(CC(=O)O)c2ccccc2)cc1 | – | > 100 µM | – | > 100 µM | – | > 100 µM | – | > 100 µM | – | > 100 µM | – | > 100 µM | – | > 100 µM | – | > 100 µM | – | – | > 100 µM | – |
| CCCCCCCCCC[C@H](O)[C@H](O)CC[C@@H](O)[C@H]1CC[C@@H]([C@H]2CC[C@H](CCCCCCC[C@@H](O)CC3=C[C@H](C)OC3=O)O2)O1 | 0.416 µM | 31.9 µM | 42.5 µM | 83 µM | 0.0863 µM | 3.46 µM and 15.9 µM | – | 78 µM | 30.9 µM | > 100 µM | – | – | 0.39 µM | 29.6 µM | 18 µM | 4.42 µM and 35.7 µM | 19.2 µM | 77.6 µM | – | 27 µM |
| CC(=O)[CH-]C(=O)c1ccccc1.CC(=O)[CH-]C(=O)c1ccccc1.CC(=O)[CH-]C(=O)c1ccccc1.[Nd+3].[OH3+] | 21.2 µM | 86.2 µM | – | – | 38.1 µM | > 100 µM | 93.8 µM | > 100 µM | 37 µM | > 100 µM | 29.5 µM | 77.4 µM | 42.8 µM | > 100 µM | 47.3 µM | > 100 µM | – | – | > 100 µM | 25.9 µM |
